Assay results reported in patent US9207296B2, “Methods and apparatus for pasadena hyperpolarization” (Huntington Medical Research Institutes, priority 2008, dated 2015).
“And” between values parts separate entries of the source, which are not always exact repeats. Equal values may be shown once. Read-outs that look alike come from different tables or passages of the source.

Key:
[1] = for 13C signal enhancement (nascent): at 4.7 T, relative to thermal polarization; for 13C polarization achieved (maximal): best value after calibration
Procedure: A number of strategies have been employed to quantify the extent of hyperpolarization [Association N.E.M. Determination of signal-to-noise ratio (SNR) in diagnostic magnetic resonance imaging. NEMA Standards, Publication MS 1-2001 (2001)]. In the present application, the following convention was applied. The signal enhancement (ηobserved) achieved by hyperpolarization was quantified in respect to the signal of a thermally polarized sample (100% ethanol, 188 mM of natural abundance ^13C at each site (Eq. 7)). The signal intensities were determined by numerical integration (xWINNMR software, Bruker Biospin, Germany)
[formula] (where IHP, Iref, CHP and Cref are integral intensities and molar concentrations of hyperpolarized and reference samples, respectively).
The decay of ^13C polarization caused by longitudinal relaxation (T1) of the hyperpolarized sample during the delivery to the detection system was determined (FIG. 15). This allows for the determination of the nascent signal enhancement (Eq. 8), and nascent level of achieved polarization (Eq. 9).
Unless otherwise indicated, PHP^t=0 and η^t=0 are reported in the work presented, using a ^13C polarization of PBoltzmann=0.00041% or 4.1 ppm at 298K and 4.7 T. T1 values for the […] reagent concerned in calibration and quality assurance (“QA”) were determined directly. A series of small angle (α≈8°) FID experiments was employed to probe the decay of the magnetization of the hyperpolarized agents (small excitation angle approximation, SEA). The T1 values were extracted by the fit of Equation 10 (Eq. 10) to the data points, taking into account the loss of magnetization caused by the excitation pulses.
Delivering hyperpolarized sample and triggered detection in the NMR scanner were further optimized. The polarizer was moved to the in vivo suite, where it was positioned carefully 7.63 m+0.5 cm from a small-animal horizontal bore, high field MRI (4.7T Bruker MRI scanner). An automated system was implemented, whereby the hyperpolarized solution was driven by remaining gas pressure in the reactor, through polyethelene (PE) tubing from the polarizer to an NMR-tube in a dual-tuned ^1H/^13C solenoid coil in the MR scanner; where after a precise interval (33 seconds) acquisition was triggered. The solution was then drained to permit successive experiments without coil repositioning.
Peak amplitude was quantified by comparison with the spectrum of ethanol (FIG. 16), using the equations described herein.

[2] = T1 decay of hyperpolarization (small angle FID series); type: physicochemical
rat brain = settings: rapid ante-grade injection into common carotid artery, 1 mL, overlaid on 1H MRI
[3] = 13C spin storage followed by refocused INEPT polarization transfer to 1H; type: physicochemical; settings: for initial 13C polarization: 2.4 mL sample, polarizer at 1.76 mT; for T1 during 13C spin storage: FIG. 20 samples, […] succinate / 2.9 mM TFPP; for 13C polarization after storage: after 70 s (succinate) or 24 s (TFPP), 12° excitation pulse; for 13C polarization after storage / net 1H NMR signal enhancement / final 13C signal enhancement: 4.7 T; for net 1H NMR signal enhancement: after refocused INEPT; for final 13C signal enhancement: after storage; for increase of overall sensitivity by proton detection: factor versus hyperpolarized 13C detection; for polarization transfer efficiency 13C to 1H: refocused INEPT
Text: Specifically, the present subject matter hyperpolarized the ^13C site of two well studied molecules, 1-^13C-succinate-d2 and 2,2,3,3-tetrafluoropropyl 1-^13C-propionate-d3 (TFPP), by […].
Hyperpolarization was then kept on ^13C for 70 s. During this time, the polarized sample was transferred from a low magnetic field polarizer operating at 1.76 mT to 4.7 T animal MR scanner. […] Then the refocused INEPT pulse sequence^10 with τINEPT=34 ms and τrefocus=32 ms (FIG. 19) was used to transfer polarization from ^13C to protons within 1-^13C-succinate-d2 (FIG. 20A and FIG. 20B). […] The delays of the refocused INEPT were τINEPT=20 ms and τrefocus=16 ms.

With O=C(O)CCC(=O)O [1-^13C-SUCC-d2,3, 1-^13C-succinate-d2,3] the “effect of concentration on level of hyperpolarization” value ([1]; 1.65-2.89 mM in water, 0.96-2.93 mM in D2O) was “No effect”, the “13C signal enhancement at the point of measurement” value ([1]; 4.7 T, 33 s after production) was 15,900 fold and the “PHP^t=0 average nascent polarization, stated in H2O” value ([1]; 16 experiments, in H2O before B1 calibration as printed) was 15.3 ±1.9%. The “polarization at the point of measurement in water” value ([1]; H2O, mean delay 33 s) was 5.4 ±1.3%, the “13C signal enhancement (nascent)” value [1] was 49,000 fold and 37,400 ±4,600 fold and the “13C signal enhancement (nascent)” value ([1]; listed as 13C succinate) was 47,000 fold. For the same molecule, the “13C polarization achieved (maximal)” value ([1]; listed as 1-^13C succinate) was 18%, the “13C polarization achieved (maximal)” value ([1]; listed as 13C succinate) was 19% and the “T1 of hyperpolarized 13C signal in D2O” value ([2]; D2O, pH 3, B0=4.7 T, N=4) was 40 ± 2 s. For the same molecule, the “T1 of hyperpolarized 13C signal in H2O” value ([2]; H2O, pH 3, B0=4.7 T, N=3, 1-3 mM SUC, 2.5 mM catalyst) was 27 ± 3 s, the “T1 when buffered to physiological pH” value ([2]; buffered to pH 7 immediately before detection, preliminary) was about 50 s and the “distribution of 13C image signal in vivo” value (rat brain) was “appeared in the anatomical distribution coincident with the rat brain”. For the same molecule, the “initial 13C polarization” value [3] was 10.7%, the “T1 during 13C spin storage” value [3] was 105 s and the “13C polarization after storage” value [3] was 5.5%. For the same molecule, the “net 1H NMR signal enhancement” value [3] was 1,350 fold, the “final 13C signal enhancement” value [3] was 13,500 fold and the “increase of overall sensitivity by proton detection” value [3] was 6.5. The “polarization transfer efficiency 13C to 1H” value [3] was 41%.
In the case of CC[13C](=O)OCCO [HEP, reference compound], the “T1 decay time in D2O” value ([2]; D2O, pH 7, B0=4.7 T) is reported as 70 s and the “T1 decay time in H2O” value ([2]; H2O, pH 7, B0=4.7 T) is reported as 50 s.
For [2H]C([2H])C([2H])[13C](=O)OCC(F)(F)C(F)F (stereo not shown) [TFPP, 2,2,3,3-tetrafluoropropyl 1-^13C-propionate-d3], the “initial 13C polarization” value [3] was 14%, the “T1 during 13C spin storage” value [3] was 67 s and the “13C polarization after storage” value [3] was 9.5%. For the same molecule, the “net 1H NMR signal enhancement” value [3] was 2,930 fold, the “final 13C signal enhancement” value [3] was 23,300 fold and the “increase of overall sensitivity by proton detection” value [3] was 7.9. For the same molecule, the “polarization transfer efficiency 13C to 1H” value [3] was 50% and 51%.
